Data on 1 compound can be found in patent EP0383170A2, “Methotrexate linked to polymers, process for their preparation, and use” (HOECHST AKTIENGESELLSCHAFT, priority 1989, dated 1990).

The subject of one data set is L1210 Leukämie. As to the kind of experiment: In vivo efficacy on L1210 leukaemia in mice (median survival time, T/C). Conditions: for optimale Dosis: dose giving the greatest antitumoral effect. The protocol: Aszites Flüssigkeit wird 7 Tage nach der Tumor-Implantation unter sterilen Bedingungen aus DBA2 Mäusen entnommen (weiblich, 18 bis 20 g). Die Aszites Flüssigkeit wird dreimal mit PBS (phosphate buffered saline) gewaschen, gezählt und anschließend in PBS verdünnt bis zu einer Endkonzentration von 10⁶ Zellen pro 0,2 ml.
10⁶ Zellen in 0,2 ml PBS werden DBA2 Mäusen (weiblich, 18 bis 20 g) intraperitoneal appliziert. Dieser Transfer wird einmal wöchentlich wiederholt.
10⁵ Zellen der Aszites Flüssigkeit in 0,2 ml PBS werden BDF1 Mäusen (weiblich, 18 bis 20 g) intraperitoneal appliziert. 6 Tiere werden für jede Substanzkonzentration sowie für die Kontrolle eingesetzt.
a) Die Tiere werden an Tag 1 und Tag 5 nach der Tumorzellenimplantation gewogen. Gewichtsverlust von mehr als 20 % an Tag 5 wird als Indikator eines toxischen Substanzeffektes verwendet.
b) Am Ende des Experiments (Tod aller Tiere oder Erreichen von Tag 60) wird die mediane Überlebenszeit der Behandlungsgruppen bestimmt, sofern diese 65 % überlebende Tiere am Tag 5 enthielten. Die Ermittlung der medianen Überlebenszeit erfolgt entsprechend der Formel: [formula]
In dieser Formel bedeutet X den frühesten Tag, an dem die Zahl der überlebenden Tiere N/2 und Y den frühesten Tag, an dem die Zahl der überlebenden Tiere (N/2)-1 ist. In dem Fall, daß N eine ungerade Zahl ist, entspricht die mediane Überlebenszeit dem Zeitpunkt X.
Die mediane Überlebenszeit wird ausschließlich für im Verlauf des Experiments sterbende Tiere bestimmt. Geheilte Tiere (long time survivors, LTS) werden von der Bestimmung der medianen Überlebenszeit ausgeschlossen und getrennt aufgeführt.
Aus der medianen Überlebenszeit der behandelten Gruppen (MSTTumor) und Kontrollgruppen (MSTControl) wird der antitumorale Effekt-Tumor/control (T/C) entsprechend der Formel [formula] bestimmt. T/C Werte von mehr als 125 % werden als Indikator einer signifikanten antitumoralen Wirksamkeit der Testverbindung angesehen. Die Dosis, die jeweils den größten antitumoralen Effekt bewirkt (optimale Dosierung) ist in Tab. 2 aufgeführt. Noch lebende Tiere an Tag 60 werden als geheilt betrachtet (LTS). Ergebnisse: s. Tabelle 2

For data set [1] the following is noted: free methotrexate; the 330 mg/kg dose is said to lie above it; cited from earlier work.
The subject of the next data set is A 549. As to the kind of experiment: Proliferation test (formazan dye reduction), 72 h incubation. Format: cell-based. The settings on record: A 549 cells. From the text: (§1) Proliferationstest (Methotrexat-Reduktion)
(§2) Kontrollexperimente erhalten anstelle der Testsubstanz lediglich Wachstumsmedium. […] Flow bei einer Wellenlänge von 492 nm gemessen.
(§3) Für wiederholte Untersuchungen beträgt der Variationskoeffizient weniger als 15 %. Tabelle 1

A further data set has as its system L1210. The data set is described as above. Format: cell-based. Conditions: L1210 cells.
From the text: as §1, §2, §3

The next data set deals with HT 29. The description is as above. Format: cell-based. Conditions: HT 29 cells.
From the text: as §1, §2, §3

Where [2] appears, read: L1210, 3xip/ip/Q3D, at optimal dose.

Bounds are passed on as bounds.

Turning to `CN(Cc1cnc2nc(N)nc(N)c2n1)c1ccc(C(=O)N[C@@H](CCC(=O)O)C(=O)O)cc1` [Methotrexat, N-[4-[[(2,4-diamino-6-pteridinyl)-methyl]methylamino]benzoyl]-glutaminsäure], the “Wirkung (T/C %)” value was found to be 123% in the data set with L1210 Leukämie (L1210, 1xip/ip, at optimal dose) and 378% with L1210 Leukämie (setting [2]). Moreover, the “optimale Dosis” value is 100 mg polymerfixiertes Produkt/kg Körpergewicht in the data set on L1210 Leukämie (L1210, 1xip/ip) and 80 mg polymerfixiertes Produkt/kg Körpergewicht in the data set on L1210 Leukämie (L1210, 3xip/ip/Q3D). Besides, in the data set with L1210 Leukämie (setting [2]), the toxisch worked out at 1. Further, the Heilungen in the data set with L1210 Leukämie (L1210, 3xip/ip/Q3D, at optimal dose, animals alive at day 60 (LTS)) was 5/6. For the same compound, the “Lebensverlängerungen gegenüber unbehandelten Kontrollen” value with L1210 Leukämie (mice with L1210 leukaemia, single i.p. application of 60 mg/kg body weight methotrexate equivalent) was “nicht wirksam”. The LD₅₀ in data set [1] is on record as below 330 mg/kg. The IC₅₀ in the data set on A 549 is given as 0,01 µg/ml; with L1210, 0,01 µg/ml; in the data set with HT 29, 0,008 µg/ml.
